Data as given in patent EP4223882A1, “PROCESS FOR PRODUCING ALDONIC ACIDS” (Vilnius University, priority 2022, dated 2023).
Read-outs that look alike come from different tables or passages of the source.

What was measured:
[1] = target: T1, PQQGDH (Acinetobacter calcoaceticus, UniProt P13650); conditions: for cmax: sqrt(KM·Ki)
T1 sequence (P13650 25-478): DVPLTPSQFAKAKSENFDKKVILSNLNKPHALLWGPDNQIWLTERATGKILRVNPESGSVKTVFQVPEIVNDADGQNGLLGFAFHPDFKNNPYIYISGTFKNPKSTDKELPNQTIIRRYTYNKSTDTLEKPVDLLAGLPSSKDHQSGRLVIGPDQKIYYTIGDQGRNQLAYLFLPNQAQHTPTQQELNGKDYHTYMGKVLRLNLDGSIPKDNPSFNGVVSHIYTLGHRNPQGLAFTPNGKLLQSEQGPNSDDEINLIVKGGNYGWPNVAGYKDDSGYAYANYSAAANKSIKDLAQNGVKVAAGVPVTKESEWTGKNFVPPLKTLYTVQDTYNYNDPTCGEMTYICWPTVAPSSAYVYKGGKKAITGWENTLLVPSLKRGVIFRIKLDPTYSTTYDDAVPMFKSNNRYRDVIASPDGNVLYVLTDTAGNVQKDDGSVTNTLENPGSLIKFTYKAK
Method: (§1) The enzyme solution was prepared using deionized water and the molar concentration was calculated assuming the molecular mass of the enzyme to be 100 kDa.
(§2) The dependence of PQQGDH catalysed substrate oxidation rate of substrate concentration was estimated for various substrates at thionine concentration of 220 µM (Fig. 3). The dependence of thionine reduction rate on carbohydrate concentration was analysed by applying the equation X1 and the apparent parameters KM, Ki and Vmax were calculated: v = (s⋅Vmax)/(KM + s⋅(1+(s)/(Ki))) [formula]
(§3) The ratio of Vmax with Km was considered as the parameter specifying the reactivity of the various substrates - the higher the value of the ratio - the better substrate reactivity. Ki - is the enzyme inhibition by the substrate constant. The concentration of the substrate at which the rate of thionine reduction was maximal (Cmax) was calculated as sqrt(KM ⋅Ki) [formula] .

[2] = target: T1, PQQGDH; experiment: biochemical
Method: as §1, §2, §3

[3] = target: T2, horseradish peroxidase (Armoracia rusticana, UniProt P00433); conditions: cited from earlier work
T2 sequence (P00433 31-338 limits assumed): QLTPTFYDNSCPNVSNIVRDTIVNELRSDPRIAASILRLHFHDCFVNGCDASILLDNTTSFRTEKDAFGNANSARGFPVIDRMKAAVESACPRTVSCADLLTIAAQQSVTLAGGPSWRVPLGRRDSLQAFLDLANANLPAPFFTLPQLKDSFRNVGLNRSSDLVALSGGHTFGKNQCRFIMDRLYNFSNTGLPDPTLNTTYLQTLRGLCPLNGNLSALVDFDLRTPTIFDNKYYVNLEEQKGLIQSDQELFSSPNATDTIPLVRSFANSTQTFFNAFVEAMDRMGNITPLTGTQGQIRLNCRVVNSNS

[4] = substrate: O=C[C@H](O)[C@@H](O)[C@@H](O)[C@H](O)CO; experiment: purified protein, by the assay type; conditions: apparent parameter
Method: as §1, §2, §3

[5] = substrate: O=C[C@H](O)[C@@H](O)[C@H](O)CO; experiment: purified protein, by the assay type; conditions: other: pH 7.0, thionine 220 µM, apparent parameter
Method: as §1, §2, §3

[6] = substrate: O=C[C@H](O)[C@H](O)[C@H](O)CO; experiment: purified protein, by the assay type; conditions: other: pH 7.0, thionine 220 µM, apparent parameter
Method: as §1, §2, §3

[7] = substrate: OC[C@H]1O[C@@H](O[C@H]2[C@H](O)[C@@H](O)C(O)O[C@@H]2CO)[C@H](O)[C@@H](O)[C@H]1O; experiment: purified protein, by the assay type; conditions: apparent parameter
Method: as §1, §2, §3

[8] = pH 7.0, thionine 220 µM, substrate concentration at maximal rate
[9] = pH 7.0, thionine 410 µM (asterisk)
[10] = Ki, pH 7.0, thionine 410 µM (asterisk), enzyme inhibition by the substrate constant
[11] = other: pH 7.0, thionine 410 µM (asterisk)

Question: What does the source list for O=C[C@H](O)[C@@H](O)[C@H](O[C@@H]1O[C@H](CO)[C@@H](O)[C@H](O)[C@H]1O)[C@H](O)CO [Cellobiose]?
Answer: substrate concentration at which the maximal reaction rate was observed (cmax) ([1]; grouping of substrates): < 20 mM; cmax [1, 8]: 2.4 ± 0.2 mM; cmax [1, 9]: 3.3 ± 0.2 mM; Ki [2]: 11 ± 1 mM; Ki [2, 10]: 21 ± 1 mM

Question: With O=C[C@H](O)[C@@H](O)[C@@H](O)[C@H](O)CO [Galactose] as the molecule, how does the “substrate concentration at which the maximal reaction rate was observed (cmax)” value (shortened to “substrate concentration”) [1] read?
Answer: < 20 mM

Question: For OC[C@H]1O[C@@H](O[C@H]2[C@H](O)[C@@H](O)C(O)O[C@@H]2CO)[C@H](O)[C@@H](O)[C@H]1O (stereo partly shown) [Lactose], which “substrate concentration” value ([1]; grouping of substrates) is on record?
Answer: < 20 mM

Question: What about the cmax [1, 8] of the same molecule?
Answer: 5.2 ± 0.9 mM

Question: What about the cmax [1, 9] of the same molecule?
Answer: 6.4 ± 0.4 mM

Question: What about the Ki [2] of the same molecule?
Answer: 25 ± 2 mM

Question: And the Ki [2, 10]?
Answer: 51 ± 2 mM

Question: Which “substrate concentration” value ([1]; grouping of substrates) does the source give for O=C[C@@H](O)[C@@H](O)[C@H](O)CO [Lyxose] here?
Answer: > 20 mM

Question: What about the Vmax ([1]; pH 7.0, thionine 220 µM, apparent parameter) of the same molecule?
Answer: 190 ± 40 s⁻¹

Question: And the cmax [1, 8]?
Answer: >10^4 mM

Question: For O=C[C@H](O)[C@H](O)[C@H](O)CO [Ribose], which “substrate concentration” value ([1]; grouping of substrates) is on record?
Answer: > 20 mM

Question: And the cmax [1, 8]?
Answer: 84 ± 39 mM

Question: With O=C[C@H](O)[C@@H](O)[C@H](O)CO [Xylose] as the molecule, how does the “substrate concentration” value ([1]; grouping of substrates) read?
Answer: > 20 mM

Question: And the cmax [1, 8]?
Answer: 88 ± 8 mM

Question: Which “bimolecular horseradish peroxidase and leuco thionine reactivity constant” value [3] does the source give for Nc1ccc2c(c1)Sc1cc(N)ccc1N2 [leuco thionine] here?
Answer: 4.8e+08 M⁻¹ s⁻¹

B1: PQQGDH (Acinetobacter calcoaceticus) (protein)
chain: T1 sequence (P13650 25-478)
Question: With B1 as the molecule, how does the Km ([4]; other: pH 7.0, thionine 220 µM) read?
Answer: 2400 ± 200 µM

Question: What about the kcat ([4]; other: pH 7.0, thionine 220 µM) of the same molecule?
Answer: 350 ± 30 s⁻¹

Question: And the Km [4, 11]?
Answer: 1800 ± 100 µM

Question: What about the kcat [4, 11] of the same molecule?
Answer: 349 ± 2 s⁻¹

Question: What about the Km [5] of the same molecule?
Answer: 7100 ± 300 µM

Question: And the kcat [5]?
Answer: 460 ± 20 s⁻¹

Question: And the Km [6]?
Answer: 21000 ± 5000 µM

Question: And the kcat [6]?
Answer: 250 ± 60 s⁻¹

Question: And the Km ([7]; other: pH 7.0, thionine 220 µM)?
Answer: 1500 ± 100 µM

Question: And the kcat ([7]; other: pH 7.0, thionine 220 µM)?
Answer: 380 ± 50 s⁻¹

Question: And the Km [7, 11]?
Answer: 610 ± 20 µM

Question: And the kcat [7, 11]?
Answer: 430 ± 10 s⁻¹
